Among the data in patent publication US11053239B2, “Compounds as BLC-2-selective apoptosis-inducing agents” (Fochon Pharmaceuticals, Ltd., priority 2017, dated 2021) are IC50 values, retold here.

The structures appear in SMILES notation. Where two headings read alike, the source gives them in different places.

In assay [1] the test system is RS4; 11 cells. Nature of the assay: Cell proliferation assay (MTS), RS4; 11 cells. In kind it is cell-based. As to conditions: RS4, 11 (ATCC CRL-1873) cell proliferation, 30000 cells/well, 72 h, MTS, mechanism-based readout of Bcl-2 inhibition, read-out: RS4, 11 IC50. The procedure, abridged: (§1)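 RS4;11 (30000 cells/well, 72 h) and DOHH2 (5000 cells/well, 120 h) cells in RPMI-1640/10% FBS, treated at 37 °C with compound at 1.5–10000 nM final. Viability by MTS (2 h, SDS stop), absorbance 490 nm minus 650 nm reference; IC50 fitted.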

The test system of assay [2] is DOHH2 cells. As to the kind of experiment: Cell proliferation assay (MTS), DOHH2 cells. In kind it is cell-based. As to conditions: DOHH2 (DSMZ ACC 47) cell proliferation, 5000 cells/well, 120 h, MTS, mechanism-based readout of Bcl-2 inhibition, read-out: DOHH2 IC50. In a few lines:
as §1

As to `C[C@@H](CCN1CCS(=O)(=NC#N)CC1)Nc1ccc(S(=O)(=O)NC(=O)c2ccc(N3CCN(CC4=C(c5ccc(Cl)cc5)CC(C)(C)CC4)CC3)cc2Oc2cnc3[nH]ccc3c2)cc1[N+](=O)[O-]` [Example 95, (S)-2-((1H-pyrrolo[2,3-b]pyridin-5-yl)oxy)-4-(4-((4′-chloro-5,5-dimethyl-3,4,5,6-tetrahydro-[1,1′-biphenyl]-2-yl)methyl)piperazin-1-yl)-N-((4-((4-(1-(cyanoimino)-1-oxido-1λ^6-thiomorpholino)butan-2-yl)amino)-3-nitrophenyl)sulfonyl) benzamide], the IC50 worked out at 22 nM in assay [1] (Homo sapiens, RS4-11, 72 h) and 71 nM in assay [2] (Homo sapiens, DOHH-2, 120 h).
With `CC(=O)N=S1(=O)CCN(C[C@H](C)Nc2ccc(S(=O)(=O)NC(=O)c3ccc(N4CCN(CC5=C(c6ccc(Cl)cc6)CC(C)(C)CC5)CC4)cc3Oc3cnc4[nH]ccc4c3)cc2[N+](=O)[O-])CC1` [Example 40, (S)-2-((1H-pyrrolo[2,3-b]pyridin-5-yl)oxy)-N-((4-((1-(1-(acetylimino)-1-oxido-1λ^6-thiomorpholino)propan-2-yl)amino)-3-nitrophenyl)sulfonyl)-4-(4-((4′-chloro-5,5-dimethyl-3,4,5,6-tetrahydro-[1,1′-biphenyl]-2-yl)methyl)piperazin-1-yl)benzamide], the IC50 in assay [1] (Homo sapiens, RS4-11, 72 h) worked out at 29 nM; in assay [2] (Homo sapiens, DOHH-2, 120 h), 84 nM.
On to `CC1(C)CCC(CN2CCN(c3ccc(C(=O)NS(=O)(=O)c4ccc(NCC5CCC(N=S(C)(C)=O)CC5)c([N+](=O)[O-])c4)c(Oc4cnc5[nH]ccc5c4)c3)CC2)=C(c2ccc(Cl)cc2)C1` (single isomer, unassigned) [Example 50B, 2-((1H-pyrrolo[2,3-b]pyridin-5-yl)oxy)-4-(4-((4′-chloro-5,5-dimethyl-3,4,5,6-tetrahydro-[1,1′-biphenyl]-2-yl)methyl)piperazin-1-yl)-N-((4-(((4-((dimethyl(oxo)-λ^6-sulfanylidene)amino)cyclohexyl)methyl)amino)-3-nitrophenyl)sulfonyl) benzamide], for which the IC50 came to 4 nM in assay [1] and 13.4 nM in assay [2].
Turning to `C[C@@H](CN1CCP(C)(=O)CC1)Nc1ccc(S(=O)(=O)NC(=O)c2ccc(N3CCN(CC4=C(c5ccc(Cl)cc5)CC(C)(C)CC4)CC3)cc2Oc2cnc3[nH]ccc3c2)cc1S(=O)(=O)C(F)(F)F` [Example 49, (S)-2-((1H-pyrrolo[2,3-b]pyridin-5-yl)oxy)-4-(4-((4′-chloro-5,5-dimethyl-3,4,5,6-tetrahydro-[1,1′-biphenyl]-2-yl)methyl)piperazin-1-yl)-N-((4-((1-(4-methyl-4-oxido-1,4-azaphosphinan-1-yl)propan-2-yl)amino)-3-((trifluoromethyl)sulfonyl)phenyl)sulfonyl)benzamide], the IC50 in assay [1] (Homo sapiens, RS4-11, 72 h) was 54 nM; in assay [2] (Homo sapiens, DOHH-2, 120 h) it was 107 nM.
In the case of `CC1(C)CCC(CN2CCN(c3ccc(C(=O)NS(=O)(=O)c4ccc(NCC5CC(N=S(C)(C)=O)C5)c([N+](=O)[O-])c4)c(Oc4cnc5[nH]ccc5c4)c3)CC2)=C(c2ccc(Cl)cc2)C1` (centres unmarked) [Example 59, 2-((1H-pyrrolo[2,3-b]pyridin-5-yl)oxy)-4-(4-((4′-chloro-5,5-dimethyl-3,4,5,6-tetrahydro-[1,1′-biphenyl]-2-yl)methyl)piperazin-1-yl)-N-((4-(((3-((dimethyl(oxo)-λ^6-sulfanylidene)amino)cyclobutyl)methyl)amino)-3-nitrophenyl)sulfonyl)benzamide], the IC50 came out at 35 nM in assay [1] (Homo sapiens, RS4-11, 72 h) and 82 nM in assay [2] (Homo sapiens, DOHH-2, 120 h).
For `C[C@@H](CCN1CCS(=O)(=NC(=O)C2CC2)CC1)Nc1ccc(S(=O)(=O)NC(=O)c2ccc(N3CCN(CC4=C(c5ccc(Cl)cc5)CC(C)(C)CC4)CC3)cc2Oc2cnc3[nH]ccc3c2)cc1S(=O)(=O)C(F)(F)F` [Example 91, (S)-2-((1H-pyrrolo[2,3-b]pyridin-5-yl)oxy)-4-(4-((4′-chloro-5,5-dimethyl-3,4,5,6-tetrahydro-[1,1′-biphenyl]-2-yl)methyl)piperazin-1-yl)-N-((4-((4-(1-((cyclopropanecarbonyl)imino)-1-oxido-1λ^6-thiomorpholino)butan-2-yl)amino)-3-((trifluoromethyl)sulfonyl)phenyl)sulfonyl)benzamide] the same measures were 119 nM and 255 nM.
For the molecule `CCN=S1(=O)CCN(CC[C@H](C)Nc2ccc(S(=O)(=O)NC(=O)c3ccc(N4CCN(CC5=C(c6ccc(Cl)cc6)CC(C)(C)CC5)CC4)cc3Oc3cnc4[nH]ccc4c3)cc2S(=O)(=O)C(F)(F)F)CC1` [Example 87, (S)-2-((1H-pyrrolo[2,3-b]pyridin-5-yl)oxy)-4-(4-((4′-chloro-5,5-dimethyl-3,4,5,6-tetrahydro-[1,1′-biphenyl]-2-yl)methyl)piperazin-1-yl)-N-((4-((4-(1-(ethylimino)-1-oxido-1λ^6-thiomorpholino)butan-2-yl)amino)-3-((trifluoromethyl)sulfonyl)phenyl)sulfonyl) benzamide], the values for the IC50 in assay [1] and in assay [2] were 145 nM and 266 nM, respectively.
